This note sets out measurements from publication PMC1175024, “Chondrocytes, synoviocytes and dermal fibroblasts all express PH-20, a hyaluronidase active at neutral pH” (Arthritis Research & Therapy, 2005).

In the test the target is T1, PH-20 (sperm adhesion molecule 1), immunopurified from human connective tissue cell layers (Homo sapiens, UniProt P38567).
T1 construct: gene SPAM1; 60-65 kDa; no tag
T1 sequence (P38567 36-490): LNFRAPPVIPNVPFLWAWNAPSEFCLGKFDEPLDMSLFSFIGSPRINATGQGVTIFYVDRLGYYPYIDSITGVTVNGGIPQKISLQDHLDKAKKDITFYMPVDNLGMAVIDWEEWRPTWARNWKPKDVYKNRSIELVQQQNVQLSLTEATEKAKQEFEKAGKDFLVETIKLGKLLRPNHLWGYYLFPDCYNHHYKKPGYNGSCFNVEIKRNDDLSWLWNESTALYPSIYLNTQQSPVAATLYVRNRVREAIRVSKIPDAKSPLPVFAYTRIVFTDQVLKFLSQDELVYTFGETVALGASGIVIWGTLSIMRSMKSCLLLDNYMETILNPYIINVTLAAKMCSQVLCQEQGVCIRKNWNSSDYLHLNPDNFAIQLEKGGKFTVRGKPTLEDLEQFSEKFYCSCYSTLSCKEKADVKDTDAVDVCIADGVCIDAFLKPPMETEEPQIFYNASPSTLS
Briefly: hyaluronan substrate gel electrophoresis (zymography). Type of test: biochemical. The following applies: 5 ug/ml apigenin in DMSO; 0.15 M NaCl, 0.5 mM CaCl2, 7 mM 1,4-saccharolactone; pH 6.5; qualitative inhibition.

Take `O=c1cc(-c2ccc(O)cc2)oc2cc(O)cc(O)c12` [apigenin]: the activity disappeared result is “hyaluronidase activity purified from cell layers with the immunoaffinity gel (Api(-), right lane), both disappeared”.
